Read-outs that look alike come from different tables or passages of the source. One block for each compound: values may come before it.
Assays:
[1] = Miscibility/solubility in heptane and water
Text: The miscibility/solubility of all ionic liquids in both heptane and water are indicated as well.
The solubility behavior of all thirty-nine geminal dicationic ionic liquids in water and heptane also was explored.

[2] = Solubility assay of N-methyl-D-glucamine in solvents; type: physicochemical
Text: The mechanism for the transformation of N-methyl-D-glucamine into a quaternary ammonium compound is a double nucleophilic substitution with an alkyl halide (FIG. 57). However, the first problem the inventors herein encountered with this approach was the lack of an appropriate solvent.

[3] = Solvation interaction parameters by inverse gas-liquid chromatography (Abraham model); type: physicochemical
Protocol: The preparation of the capillary columns for inverse gas-liquid chromatographic analysis was performed using a previously described procedure. All capillary columns had efficiencies between 2100 to 2500 plates/meter. Characterization of the capillary columns and probe molecule descriptions are listed in supplemental information. Multiple linear regression analysis (MLRA) and statistical calculations were performed using the program Analyse-it (Microsoft, USA).
Solvation Characteristics. We have previously reported that the Abraham solvation model, a linear free energy approach that utilizes inverse gas-liquid chromatography to describe the solvation properties of a liquid, can be used to characterize room temperature ionic liquids. Described by equation 1, the model provides the so-called “interaction parameters” (r, s, a, b, l) by using multiple linear regression analysis to fit the retention factor (k, determined chromatographically) to the solute descriptors (R2, π2^Hα2H, β2^H, log L^16) for a wide variety of probe solute molecules. […]
Previously we characterized a large number of room temperature ionic liquids in terms of multiple solvation interactions using the solvation parameter model, shown in equation log k=c+rR2+sπ2^H+aα2^H+bβ2^H+l log L^16 [3] This approach utilizes inverse gas-liquid chromatography and allows the use of a large number of probe molecules to deconvolute solute retention in terms of the type and magnitude of individual solvation interactions. The solute descriptors (R2, π2^H, α2^H, .β2^H, log L^16) from Equation 3 are obtained from the literature for many probe molecules containing a variety of functional groups. The retention factor is determined chromatographically. The solute descriptors and retention factors are subjected to multiple linear regression analysis to obtain the interaction parameter coefficients (r, s, a, b, l), which ultimately characterize the stationary phase: r is the ability of the diionic liquid containing-stationary phase to interact with .π0 and n electrons of the solute, s is a measure of the dipolarity/polarizability of the diionic liquid containing-stationary phase, a defines the diionic liquid containing-stationary phase hydrogen bond basicity, b is a measure of the hydrogen bond acidity, and l refers to the ability of the diionic liquid containing-stationary phase to separate adjacent members of a homologous series.
Test solutes used to determine interaction parameters and solvation thermodynamics were dissolved in dichloromethane. […] Split injection and flame ionization detection were utilized with injection and detection temperatures of 250° C. Helium was used as the carrier gas with a column inlet pressure of 3.1 psi and flow rate of 1.0 mL/min. Methane was used to determine the dead volume of the column. Multiple linear regression analysis and statistical calculations were performed using the program Analyze-it (Microsoft).

[4] = Surface tension, DuNuoy tensiometer; type: physicochemical; conditions: room temperature (23° C.)
Protocol: Surface tension values were measured at room temperature (23° C.) using a Model 20 DuNuoy Tensiometer (Fisher Scientific, Fair Lawn, N.J.) equipped with a platinum-iridium ring with a mean circumference of 5.940 cm and a ring/wire radius of 53.21.

[5] = Density by weighing 2.0 mL of ionic liquid; type: physicochemical; conditions: 23° C.; Tables 1 and 2
Protocol: The densities of the ionic liquids […] were determined at 23° C. by placing 2.0 mL of the ionic liquid in a 2.0 mL volumetric tube and weighing by difference. The melting points of the ionic liquids were determined using a Perkin Elmer Pyris 1 Differential Scanning Calorimeter (Boston, Mass.). Typical methods involved using a 10° C./min temperature ramp to determine and identify the first and second order thermal transitions. […] For solid compounds, the melting points were verified using a capillary melting point apparatus. Refractive index measurements were conducted at 23° C. using a Bausch & Lomb Abbe-3L refractometer.

[6] = values taken from reference 31, cited from earlier work

Compound: [Br-].[Br-].c1ccc(Cn2cc[n+](CCCCCCCCCCCC[n+]3ccn(Cc4ccccc4)c3)c2)cc1 [C12(benzim)2-Br, 1,12-di(3-benzylimidazolium)dodecane di-bromide]
Miscibility with Water ([1]; listed as 28): insoluble in water

Compound: Cn1cc[n+](CCC[n+]2ccn(C)c2)c1.F[B-](F)(F)F.F[B-](F)(F)F [C3(mim)2-BF4, 1,3-di(3-methylimidazolium)propane di-tetrafluoroborate]
Miscibility with Heptane [1]: Immiscible
Miscibility with Water [1]: Miscible

Compound: CNC[C@H](O)[C@@H](O)[C@H](O)[C@H](O)CO [N-methyl-D-glucamine]
solubility in acetone, dimethyl formamide, tetrahydrofuran, ethyl acetate, acetonitrile and dichloromethane [2]: insoluble
solubility in water, dimethylsulfoxide (DMSO) [2]: only soluble

Compound: C[N+]1(CCC[N+]2(C)CCCC2)CCCC1.F[P-](F)(F)(F)(F)F.F[P-](F)(F)(F)(F)F [C3(mpy)2-PF6, 1,3-di(methylpyrrolidinium)propane di-hexafluorophosphate]
Miscibility with Heptane [1]: Immiscible
Miscibility with Water [1]: Immiscible

Compound: Cn1cc[n+](CCCCCCCCC[n+]2ccn(C)c2)c1.O=S(=O)([N-]S(=O)(=O)C(F)(F)F)C(F)(F)F.O=S(=O)([N-]S(=O)(=O)C(F)(F)F)C(F)(F)F [C9(mim)2-NTf2, 1,9-di(3-methylimidazolium)nonane di-bis[(trifluoromethyl)sulfonyl]imidate]
Interaction parameter a (hydrogen bond basicity) ([3]; 40° C.): 1.83
Interaction parameter b (hydrogen bond acidity) ([3]; 40° C.): 0.47
Interaction parameter c ([3]; 40° C.): −2.86
Interaction parameter l (dispersion forces) ([3]; 40° C.): 0.62
Interaction parameter r (interaction via nonbonding and π-electrons) ([3]; 40° C.): 0.16
Interaction parameter s (dipolarity/polarizability) ([3]; 40° C.): 1.81
Interaction parameter a (hydrogen bond basicity) ([3]; 70° C.): 1.75
Interaction parameter b (hydrogen bond acidity) ([3]; 70° C.): 0.20
Interaction parameter c ([3]; 70° C.): −2.95
Interaction parameter l (dispersion forces) ([3]; 70° C.): 0.51
Interaction parameter r (interaction via nonbonding and π-electrons) ([3]; 70° C.): 0.11
Interaction parameter s (dipolarity/polarizability) ([3]; 70° C.): 1.76
Interaction parameter a (hydrogen bond basicity) ([3]; 100° C.): 1.50
Interaction parameter b (hydrogen bond acidity) ([3]; 100° C.): 0.15
Interaction parameter c ([3]; 100° C.): −3.06
Interaction parameter l (dispersion forces) ([3]; 100° C.): 0.43
Interaction parameter r (interaction via nonbonding and π-electrons) ([3]; 100° C.): 0.11
Interaction parameter s (dipolarity/polarizability) ([3]; 100° C.): 1.64

Compound: C[n+]1ccn(CCCCn2cc[n+](C)c2)c1.O=S(=O)([N-]S(=O)(=O)C(F)(F)F)C(F)(F)F.O=S(=O)([N-]S(=O)(=O)C(F)(F)F)C(F)(F)F [C4(mim)2-NTf2]
Interaction parameter a (hydrogen bond basicity) ([3]; 40° C.): 2.11
Interaction parameter b (hydrogen bond acidity) ([3]; 40° C.): 0.50
Interaction parameter c ([3]; 40° C.): −2.94
Interaction parameter l (dispersion forces) ([3]; 40° C.): 0.56
Interaction parameter r (interaction via nonbonding and π-electrons) ([3]; 40° C.): 0.25
Interaction parameter s (dipolarity/polarizability) ([3]; 40° C.): 2.01
Interaction parameter a (hydrogen bond basicity) ([3]; 70° C.): 1.77
Interaction parameter b (hydrogen bond acidity) ([3]; 70° C.): 0.45
Interaction parameter c ([3]; 70° C.): −2.91
Interaction parameter l (dispersion forces) ([3]; 70° C.): 0.44
Interaction parameter r (interaction via nonbonding and π-electrons) ([3]; 70° C.): 0.22
Interaction parameter s (dipolarity/polarizability) ([3]; 70° C.): 1.78
Interaction parameter a (hydrogen bond basicity) ([3]; 100° C.): 1.57
Interaction parameter b (hydrogen bond acidity) ([3]; 100° C.): 0.33
Interaction parameter c ([3]; 100° C.): −3.06
Interaction parameter l (dispersion forces) ([3]; 100° C.): 0.37
Interaction parameter r (interaction via nonbonding and π-electrons) ([3]; 100° C.): 0.20
Interaction parameter s (dipolarity/polarizability) ([3]; 100° C.): 1.69

Compound: CCCCn1cc[n+](C)c1.O=S(=O)([N-]S(=O)(=O)C(F)(F)F)C(F)(F)F [BMIM-NTf2, 1-butyl-3-methylimidazolium bis[(trifluoromethylsulfonyl)imide], reference compound]
Interaction parameter a (hydrogen bond basicity) ([3]; 40° C.): 2.02
Interaction parameter b (hydrogen bond acidity) ([3]; 40° C.): 0.36
Interaction parameter c ([3]; 40° C.): −2.87
Interaction parameter l (dispersion forces) ([3]; 40° C.): 0.63
Interaction parameter r (interaction via nonbonding and π-electrons) ([3]; 40° C.): 0
Interaction parameter s (dipolarity/polarizability) ([3]; 40° C.): 1.89
Interaction parameter a (hydrogen bond basicity) ([3]; 70° C.): 1.75
Interaction parameter b (hydrogen bond acidity) ([3]; 70° C.): 0.38
Interaction parameter c ([3]; 70° C.): −3.03
Interaction parameter l (dispersion forces) ([3]; 70° C.): 0.56
Interaction parameter r (interaction via nonbonding and π-electrons) ([3]; 70° C.): 0
Interaction parameter s (dipolarity/polarizability) ([3]; 70° C.): 1.67
Interaction parameter a (hydrogen bond basicity) ([3]; 100° C.): 1.55
Interaction parameter b (hydrogen bond acidity) ([3]; 100° C.): 0.24
Interaction parameter c ([3]; 100° C.): −3.13
Interaction parameter l (dispersion forces) ([3]; 100° C.): 0.49
Interaction parameter r (interaction via nonbonding and π-electrons) ([3]; 100° C.): 0
Interaction parameter s (dipolarity/polarizability) ([3]; 100° C.): 1.60

Miscibility with Heptane [1]: Immiscible
Miscibility with Water [1]: Miscible
Compound: 1,3-di(2,3-dimethylimidaolium)propane di-bromide [C3(m2im)2-Br]

Compound: Cn1cc[n+](CCC[n+]2ccn(C)c2)c1.[Br-].[Br-] [C3(mim)2-Br, 1,3-di(3-methylimidazolium)propane di-bromide]
Miscibility with Heptane [1]: Immiscible
Miscibility with Water [1]: Miscible

Compound: Cn1cc[n+](CCC[n+]2ccn(C)c2)c1.F[P-](F)(F)(F)(F)F.F[P-](F)(F)(F)(F)F [C3(mim)2-PF6, 1,3-di(3-methylimidazolium)propane di-hexafluorophosphate]
Miscibility with Heptane [1]: Immiscible
Miscibility with Water [1]: Immiscible

Surface Tension [4]: 57.9 dynes/cm
Density [5]: 1.27 g/mL
Miscibility with Water [1]: Miscible
Compound: Cn1cc[n+](CCCCCCCCCCCC[n+]2ccn(C)c2)c1.[Br-].[Br-] [C12(mim)2-Br, 1,12-di(3-methylimidazolium)dodecane di-bromide]

Compound: CCCC[N+]1(C)CCCC1.O=S(=O)([N-]S(=O)(=O)C(F)(F)F)C(F)(F)F [BMPY-NTf2, 1-butyl-1-methylpyrrolidinium bis[(trifluoromethylsulfonyl)imide]]
Interaction parameter a (hydrogen bond basicity) ([6]; 40° C.): 2.08
Interaction parameter b (hydrogen bond acidity) ([6]; 40° C.): 0.16
Interaction parameter c ([6]; 40° C.): −2.78
Interaction parameter l (dispersion forces) ([6]; 40° C.): 0.68
Interaction parameter r (interaction via nonbonding and π-electrons) ([6]; 40° C.): 0
Interaction parameter s (dipolarity/polarizability) ([6]; 40° C.): 1.69
Interaction parameter a (hydrogen bond basicity) ([6]; 70° C.): 1.78
Interaction parameter b (hydrogen bond acidity) ([6]; 70° C.): 0
Interaction parameter c ([6]; 70° C.): −2.80
Interaction parameter l (dispersion forces) ([6]; 70° C.): 0.56
Interaction parameter r (interaction via nonbonding and π-electrons) ([6]; 70° C.): 0
Interaction parameter s (dipolarity/polarizability) ([6]; 70° C.): 1.53
Interaction parameter a (hydrogen bond basicity) ([6]; 100° C.): 1.55
Interaction parameter b (hydrogen bond acidity) ([6]; 100° C.): 0
Interaction parameter c ([6]; 100° C.): −2.92
Interaction parameter l (dispersion forces) ([6]; 100° C.): 0.48
Interaction parameter r (interaction via nonbonding and π-electrons) ([6]; 100° C.): 0
Interaction parameter s (dipolarity/polarizability) ([6]; 100° C.): 1.44

Miscibility with Heptane [1]: Immiscible
Miscibility with Water [1]: Immiscible
Compound: 1,3-di(2,3-dimethylimidazolium)propane di-hexafluorophosphate [C3(m2im)2-PF6]

Compound: O=S(=O)([N-]S(=O)(=O)C(F)(F)F)C(F)(F)F.O=S(=O)([N-]S(=O)(=O)C(F)(F)F)C(F)(F)F.c1ccc(Cn2cc[n+](CCCCCCCCCCCC[n+]3ccn(Cc4ccccc4)c3)c2)cc1 [C12(benzim)2-NTf2, 1,12-di(3-benzylimidazolium)dodecane di-bis[(trifluoromethyl)sulfonyl]imidate]
Interaction parameter a (hydrogen bond basicity) ([3]; 40° C.): 1.96
Interaction parameter b (hydrogen bond acidity) ([3]; 40° C.): 0.84
Interaction parameter c ([3]; 40° C.): −2.94
Interaction parameter l (dispersion forces) ([3]; 40° C.): 0.66
Interaction parameter r (interaction via nonbonding and π-electrons) ([3]; 40° C.): 0.11
Interaction parameter s (dipolarity/polarizability) ([3]; 40° C.): 1.65
Interaction parameter a (hydrogen bond basicity) ([3]; 70° C.): 1.75
Interaction parameter b (hydrogen bond acidity) ([3]; 70° C.): 0.57
Interaction parameter c ([3]; 70° C.): −3.07
Interaction parameter l (dispersion forces) ([3]; 70° C.): 0.56
Interaction parameter r (interaction via nonbonding and π-electrons) ([3]; 70° C.): 0.07
Interaction parameter s (dipolarity/polarizability) ([3]; 70° C.): 1.62
Interaction parameter a (hydrogen bond basicity) ([3]; 100° C.): 1.44
Interaction parameter b (hydrogen bond acidity) ([3]; 100° C.): 0.52
Interaction parameter c ([3]; 100° C.): −3.12
Interaction parameter l (dispersion forces) ([3]; 100° C.): 0.46
Interaction parameter r (interaction via nonbonding and π-electrons) ([3]; 100° C.): 0
Interaction parameter s (dipolarity/polarizability) ([3]; 100° C.): 1.47

Source: patent publication US8734673B2, “Boron selective ionic liquids and polymeric ionic liquids, methods of making and methods of use thereof” (The University of Toledo, priority 2008, dated 2014)
